Source: patent US12247004B2, “2-amino-N-(amino-oxo-aryl-lambda6-sulfanylidene)acetamide compounds and their therapeutic use” (Oxford Drug Design Limited, priority 2019, dated 2025)
Values after ≈ are worked out from the molar mass of the structure shown. Where two headings read alike, the source gives them in different places.

How the values were obtained:
[1] = target: Isoleucyl-tRNA synthetase (IleRS) (Escherichia coli (strain K12), UniProt P00956); assay: Isoleucyl-tRNA synthetase enzyme inhibition (AMP-Glo; single point % inhibition at 100 μM and IC50); type: biochemical
Chain of Isoleucyl-tRNA synthetase (IleRS) (P00956 whole entry, looked up): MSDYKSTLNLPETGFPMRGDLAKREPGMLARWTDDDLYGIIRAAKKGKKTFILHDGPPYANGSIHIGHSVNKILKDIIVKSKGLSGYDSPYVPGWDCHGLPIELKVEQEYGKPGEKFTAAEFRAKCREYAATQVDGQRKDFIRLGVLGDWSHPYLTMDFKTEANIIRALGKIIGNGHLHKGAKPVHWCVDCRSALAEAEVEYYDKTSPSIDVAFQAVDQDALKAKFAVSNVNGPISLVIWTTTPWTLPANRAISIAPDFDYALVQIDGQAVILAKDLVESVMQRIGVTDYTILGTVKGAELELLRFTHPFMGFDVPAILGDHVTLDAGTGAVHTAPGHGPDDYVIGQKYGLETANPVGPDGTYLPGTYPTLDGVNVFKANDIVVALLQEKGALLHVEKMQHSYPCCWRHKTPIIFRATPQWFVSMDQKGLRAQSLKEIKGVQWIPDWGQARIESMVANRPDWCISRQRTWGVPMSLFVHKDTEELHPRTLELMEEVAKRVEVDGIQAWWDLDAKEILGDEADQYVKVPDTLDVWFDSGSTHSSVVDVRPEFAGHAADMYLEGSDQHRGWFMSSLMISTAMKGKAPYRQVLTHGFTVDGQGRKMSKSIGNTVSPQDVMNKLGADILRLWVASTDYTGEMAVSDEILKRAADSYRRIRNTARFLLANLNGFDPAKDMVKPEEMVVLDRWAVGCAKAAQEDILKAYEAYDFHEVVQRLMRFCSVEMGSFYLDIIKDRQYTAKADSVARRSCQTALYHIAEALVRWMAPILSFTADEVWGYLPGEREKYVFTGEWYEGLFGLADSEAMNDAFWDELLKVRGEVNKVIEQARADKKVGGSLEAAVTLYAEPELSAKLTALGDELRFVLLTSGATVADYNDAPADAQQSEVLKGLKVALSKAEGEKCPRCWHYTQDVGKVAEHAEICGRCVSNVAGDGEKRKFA
Text: Study 1—Enzyme Inhibition
The aminoacylation reaction catalyzed by aminoacyl-tRNA synthetases (aaRS) takes place in two steps. In the first step, aaRS activates its cognate amino acid with ATP; and in the second step the activated amino acid is loaded to its corresponding tRNA. This reaction can be summarized as follows: aaRS+aa+ATP=aaRS-aa-AMP+PPi aaRS-aa-AMP+tRNA=aa-tRNA+AMP+aaRS […]
wherein: aaRS, aminoacyl-tRNA synthetase; aa, amino acid; aaRS-aa-AMP, enzyme-bound to aminoacyl-adenylate; AMP, adenosine monophosphate; aa-tRNA, aminoacyl-tRNA, PPi, inorganic pyrophosphate.
Isoleucyl-tRNA Synthetase a. Single Point Percentage Inhibition
The activity of the pathogenic aaRSs was monitored by measuring AMP production using the commercial kit AMP-Glo (Promega, Madison, USA).
Ligand stock solutions were prepared in 100% DMSO at 10 mM concentration. An assay buffer consisting of 100 mM Tris HCl pH 7.6, 40 mM MgCl, 20 mM KCl and 150 mM NaCl was prepared in dH2O. An enzyme solution containing 51.77 μM IleRS was prepared in assay buffer to provide 30 nM final assay concentration and 75 nM reservoir concentration for a 1:2.5 dilution in the assay. A substrate solution was also prepared in assay buffer with 50 mM L-isoleucine, 10 mM ATP and 100 mg/mL tRNA. A final assay concentration of 500 μM L-isoleucine, 5 μM ATP and 1 mg/mL tRNA and reservoir concentration of 833.33 μM L-isoleucine, 8.33 μM ATP and 1.67 mg/mL tRNA was used for a 1:1.66 dilution in assay.
Enzyme percentage inhibition values were recorded in triplicate at a single point concentration of 100 μM.
Using the same enzymatic assay in a 384-well plate format, ten point concentration response curves were generated for each compound using a top concentration of 100 μM. The known inhibitor, IleAMS was used as a positive control for the IleRS assay. 100% DMSO was used as a negative control. The IC50 was calculated based on non-linear regression analysis.

[2] = Human cell viability / cytotoxicity (CellTiter-Glo, 24 hours); type: cell-based; conditions: human, HepG2 cells (ATCC HB-8065); HepG2 ATCC HB-8065, 24 hours; read-out: Cytotoxicity in HepG2 ATCC HB-8065 Cell Line, IC50
Procedure, shortened: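 HepG2 cells (15,000/well, MEM with 1% NEAA and 1% pyruvate) were grown 2 days, then exposed to compounds in duplicate for 24 h at 1.28% DMSO. Viability was read as ATP by CellTiter-Glo luminescence relative to DMSO-only wells. IC50 is in μg/mL.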

[3] = test system: bacteria (ATCC reference strains); assay: Antibacterial activity, MIC by broth micro-dilution (CLSI)
[4] = E. coli IleRS, read-out: Enzyme Inhibition - IC50, E. coli IleRS
[5] = Acinetobacter baumannii, read-out: Antibacterial Activity (MIC), E = A. baumannii B1931
[6] = Enterobacter cloacae, read-out: Antibacterial Activity (MIC), B = Enterobacter cloacae B1966
[7] = Escherichia coli, ATCC25922, read-out: Antibacterial Activity (MIC), A = E. coli ATCC 25922
[8] = Haemophilus influenzae, ATCC49247, read-out: Antibacterial Activity (MIC), F = H. influenzae ATCC 49247
[9] = Klebsiella pneumoniae, ATCC700603, read-out: Antibacterial Activity (MIC), C = K. pneumoniae ATCC 700603
[10] = Pseudomonas aeruginosa, ATCC27853, read-out: Antibacterial Activity (MIC), D = P. aeruginosa ATCC 27853

Which IC50 [1, 4] does the source give for `CC[C@H](C)[C@H](N)C(=O)N=[S@@](N)(=O)c1ccc(Cl)s1.Cl` [ANASIA-029-2] here?
The IC50 was 4.59 µM.

What about the IC50 at 24 h [2] of the same compound?
Its IC50 at 24 h is > 64 µg/mL.

What about the MIC [3, 5] of the same compound?
Its MIC is > 64 µg/mL.

And the MIC [3, 6]?
The MIC was > 64 µg/mL.

And the MIC [3, 7]?
Its MIC is 64 µg/mL.

What about the MIC [3, 8] of the same compound?
Its MIC is 16 µg/mL.

And the MIC [3, 9]?
Its MIC is > 64 µg/mL.

And the MIC [3, 10]?
The MIC was > 64 µg/mL.

Which IC50 [1, 4] does the source give for `CC[C@H](C)[C@H](N)C(=O)N=[S@@](N)(=O)c1ccc(C)s1.Cl` [ANASIA-031-2] here?
The IC50 was 2.65 µM.

And the IC50 at 24 h [2]?
Its IC50 at 24 h is > 64 µg/mL.

And the MIC [3, 5]?
Its MIC is > 64 µg/mL.

And the MIC [3, 6]?
Its MIC is 64 µg/mL.

And the MIC [3, 7]?
The MIC was 64 µg/mL.

What about the MIC [3, 8] of the same compound?
Its MIC is 16 µg/mL.

And the MIC [3, 9]?
Its MIC is > 64 µg/mL.

And the MIC [3, 10]?
Its MIC is > 64 µg/mL.

For `CC[C@H](C)[C@H](N)C(=O)N=S(N)(=O)c1ccc(C)s1` (some centres unmarked) [ANASIA-031], which IC50 [1, 4] is on record?
Its IC50 is 6.7 µM.

And the IC50 at 24 h [2]?
The IC50 at 24 h was > 64 µg/mL.

And the MIC [3, 5]?
The MIC was > 64 µg/mL.

What about the MIC [3, 6] of the same compound?
The MIC was > 64 µg/mL.

And the MIC [3, 7]?
Its MIC is > 64 µg/mL.

And the MIC [3, 8]?
Its MIC is 64 µg/mL (≈ 221 µM).

And the MIC [3, 9]?
The MIC was > 64 µg/mL.

What about the MIC [3, 10] of the same compound?
The MIC was > 64 µg/mL.

For `CC[C@H](C)[C@H](N)C(=O)N=[S@](N)(=O)c1ccc(C)cc1.Cl` [ANASIA-034-1], which IC50 [1] is on record?
Its IC50 is 14.7 µM.

And the IC50 at 24 h [2]?
The IC50 at 24 h was > 64 µg/mL.

What about the MIC [3, 5] of the same compound?
Its MIC is > 64 µg/mL.

And the MIC [3, 6]?
The MIC was > 64 µg/mL.

What about the MIC [3, 7] of the same compound?
The MIC was > 64 µg/mL.

What about the MIC [3, 8] of the same compound?
Its MIC is 64 µg/mL.

And the MIC [3, 9]?
Its MIC is > 64 µg/mL.

And the MIC [3, 10]?
Its MIC is > 64 µg/mL.

With `CC[C@H](C)[C@H](N)C(=O)N=[S@](N)(=O)c1ccc(Cl)cc1` [ANASIA-035-1] as the compound, how does the IC50 [1] read?
Its IC50 is 18.3 µM.

And the IC50 at 24 h [2]?
The IC50 at 24 h was > 64 µg/mL.

For `CC[C@H](C)[C@H](N)C(=O)N=[S@@](N)(=O)c1ccc(Cl)cc1.Cl` [ANASIA-035-2], which IC50 [1, 4] is on record?
The IC50 was 4.65 µM.

And the IC50 at 24 h [2]?
Its IC50 at 24 h is > 64 µg/mL.

And the MIC [3, 5]?
Its MIC is > 64 µg/mL.

What about the MIC [3, 6] of the same compound?
The MIC was > 64 µg/mL.

What about the MIC [3, 7] of the same compound?
Its MIC is > 64 µg/mL.

And the MIC [3, 8]?
The MIC was 64 µg/mL.

And the MIC [3, 9]?
Its MIC is > 64 µg/mL.

And the MIC [3, 10]?
Its MIC is > 64 µg/mL.

With `CC[C@H](C)[C@H](N)C(=O)N=[S@](N)(=O)c1ccc(Cl)c(Cl)c1` [ANASIA-036-1] as the compound, how does the IC50 [1] read?
The IC50 was 7.86 µM.

And the IC50 at 24 h [2]?
Its IC50 at 24 h is > 64 µg/mL.

Which results are given for `CC[C@H](C)[C@H](N)C(=O)N=S(N)(=O)c1cc2ccccc2s1` (some centres unmarked) [ANASIA-037]?
IC50 [1, 4]: 2.74 µM; IC50 at 24 h [2]: > 64 µg/mL; MIC [3, 5]: > 64 µg/mL; MIC [3, 6]: > 64 µg/mL; MIC [3, 7]: > 64 µg/mL; MIC [3, 8]: 32 µg/mL (≈ 98.3 µM); MIC [3, 9]: > 64 µg/mL; MIC [3, 10]: > 64 µg/mL

For `CC[C@H](C)[C@H](N)C(=O)N=S(N)(=O)c1ccc(C(F)F)s1` (some centres unmarked) [ANASIA-038], which IC50 [1, 4] is on record?
Its IC50 is 15.8 µM.

And the IC50 at 24 h [2]?
Its IC50 at 24 h is > 64 µg/mL.

And the MIC [3, 5]?
Its MIC is > 64 µg/mL.

And the MIC [3, 6]?
The MIC was > 64 µg/mL.

What about the MIC [3, 7] of the same compound?
Its MIC is > 64 µg/mL.

And the MIC [3, 8]?
The MIC was 64 µg/mL (≈ 197 µM).

And the MIC [3, 9]?
The MIC was > 64 µg/mL.

What about the MIC [3, 10] of the same compound?
The MIC was > 64 µg/mL.

With `CC[C@H](C)[C@H](N)C(=O)N=[S@](N)(=O)c1cccc(Oc2ccc(Cl)cc2)c1` [ANASIA-052-1] as the compound, how does the IC50 [1] read?
Its IC50 is 37.7 µM.

And the IC50 at 24 h [2]?
Its IC50 at 24 h is > 64 µg/mL.
